Experimental data reported in paper PMC8669712, “G Protein-Coupled Receptor GPR35 Suppresses Lipid Accumulation in Hepatocytes” (ACS Pharmacology & Translational Science, 2021).
Where “and” joins values, the source holds several entries; their conditions need not be identical. Identical values can stand only once. Entries after “also recorded” stand apart in the source; their conditions may differ.

Key:
HepG2 cells [1] = experiment: Oil Red O staining of LXR (T0901317)-induced lipid accumulation in HepG2 cells; type: cell-based, human
Procedure: Human hepatocellular carcinoma HepG2 cells were grown in Minimum Essential Medium (MEM) supplemented with 10% fetal bovine serum (FBS), 2 mM L-glutamine, 1× non-essential amino acid, 1 mM sodium pyruvate, and 1× penicillin/streptomycin. Materials for cell culture were all from Sigma-Aldrich (St. Louis, MO) or Thermo Fisher Scientific (Waltham, MA). Cells were incubated in a humidified CO2 incubator at 37 °C. […] Cells were seeded onto a 12-well plate (1 × 10^5 cells/well) for 24 h prior to drug treatment. […] Lipid accumulation was measured by Oil Red O staining.

mouse GPR35 = mouse GPR35 (Mus musculus, UniProt Q9ES90); experiment: β-arrestin-based interaction assay, agonist potency at mouse GPR35; type: cell-based
mouse GPR35, sequence (Q9ES90 whole entry): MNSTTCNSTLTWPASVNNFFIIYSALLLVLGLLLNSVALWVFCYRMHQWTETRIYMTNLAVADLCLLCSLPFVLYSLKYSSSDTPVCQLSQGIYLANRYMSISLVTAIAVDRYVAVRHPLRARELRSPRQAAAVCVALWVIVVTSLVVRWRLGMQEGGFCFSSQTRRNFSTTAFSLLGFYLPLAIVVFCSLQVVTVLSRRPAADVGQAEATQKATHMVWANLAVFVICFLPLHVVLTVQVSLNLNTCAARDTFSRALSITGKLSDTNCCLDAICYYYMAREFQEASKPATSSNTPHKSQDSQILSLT

HepG2 cells [2] = experiment: Label-free cellular impedance assay (xCELLigence) in HepG2 cells; type: cell-based, human
Procedure: HepG2 cells were seeded onto xCELLigence E plates (2 × 10^4 cells/well) and incubated for 24 h at 37 °C. To evaluate GPR35 activation and its downstream G protein signaling, HepG2 cells or primary mouse hepatocytes were exposed to GPR35 antagonists or G protein inhibitors 1 h (overnight for Pertussis toxin) prior to GPR35 agonist stimulation. After the addition of GPR35 agonist or vehicle control, the impedance (represented as “cell index”) was recorded every 30 s over a 2 h period using xCELLigence RTCA (Agilent). Each experiment was repeated at least three times.

[3] = tested on: hepatocytes from hGPR35a-HA-expressing mice; experiment: Oil Red O lipid accumulation in hepatocytes from hGPR35a-HA-expressing mice; type: cell-based, mouse
Procedure: All mice were bred as WT or homozygous onto a C57BL/6N background. Animals were cared for in accordance with national guidelines on animal experimentation. All animal experiments were conducted under a home office license held by the authors. WT, humanized GPR35a, or KO male mice at 3–4 months of age were used in this study. These mice were fed ad libitum with a standard mouse chow diet. Briefly, mouse primary hepatocytes were isolated using a two-step collagenase perfusion technique.[45] Twelve-well plates or xCELLigence E plates were coated with rat tail collagen I solution (Thermo Fisher Scientific) overnight at 37 °C and washed with PBS. Isolated primary hepatocytes were seeded onto 12-well plates (8 × 10^4 cells/well) or xCELLigence E plates (2 × 10^4 cells/well) in Wiliam’s E medium (Thermo Fisher Scientific) supplemented with 10% fetal bovine serum (FBS) and 1× penicillin/streptomycin. Cells were maintained for 7 days with a fresh medium change every other day. […] Human GPR35 activation was examined using xCELLigence RTCA assay. To access the impact of GPR35 agonists on the lipid accumulation, WT and humanized GPR35 hepatocytes were incubated with T0901317 and/or GPR35 agonists/antagonists, as indicated (in DMEM medium containing 5% FBS and 1.5% BSA) for 48 h. Alternatively, GPR35 KO hepatocytes were incubated with drugs, as indicated for 5 days. In the T0901317 pretreatment model, human GPR35 hepatocytes were stimulated with T0901317 for 2 days and then further treated with lodoxamide for a further 3 days. After each drug treatment, hepatocytes were stained with Oil Red O and quantified as described. Each experiment was repeated at least three times.
Lipid accumulation was measured by Oil Red O staining. A working solution of Oil Red O was prepared, as described with modification.[46] After drug treatment, cells were washed with PBS and fixed with formalin solution for 1 h at 4 °C. Then, cells were stained with Oil Red O working solution for 10 min at room temperature. After PBS washing, Oil Red O was extracted from cells using 150 μl of isopropanol and OD510 nm measured. After the lipid extraction, cells were further soaked in PBS overnight at 4 °C. These cells were then stained with Hoechst 33342 (1 μg/mL) and the fluorescence intensity of Hoechst (represents the DNA content in cells) was measured using a CLARIOstar plate reader (BMG LABTECH). Oil Red O accumulation was corrected for differences in DNA content and expressed as relative absorbency, taking the control condition (treated with vehicle only) as 1.

[4] = tested on: hepatocytes from hGPR35a-HA-expressing mice; experiment: Label-free cellular impedance assay in hepatocytes from hGPR35a-HA-expressing mice; type: cell-based, mouse; details: lodoxamide 1 × 10^–7 M
[5] = tested on: high-fat diet-induced wild-type mice; set-up: method as in PMID 31189299; details: oral, 1 mg/kg, final 7 days of a 7-week-diet exposure; cited from earlier work

N#Cc1cc(NC(=O)C(=O)O)c(Cl)c(NC(=O)C(=O)O)c1 [lodoxamide, 2-[2-chloro-5-cyano-3-(oxaloamino)anilino]-2-oxoacetic acid]
effect on basal lipid accumulation without co-addition of T0901317 (HepG2 cells [1]; 1 × 10^–5 M): no significant effect | EC50 (HepG2 cells [1]; Homo sapiens, co-incubation with T0901317 4 × 10^–6 M, 48 h, Oil Red O, read-out: EC50 for reduction in the lipid accumulation induced by T0901317): 95 nM | effect of T0901317 on lipid accumulation at maximally effective concentrations of lodoxamide (HepG2 cells [1]; T0901317 4 × 10^–6 M, 48 h): fully suppressed | fold lower potency at mouse GPR35 than at human GPR35 (mouse GPR35; mouse versus human GPR35): ~450 fold and ~500 fold | EC50 (mouse GPR35; β-arrestin-based interaction assay, read-out: mouse GPR35, pEC50 (converted)): 1910 nM | impedance signal in parental HepG2 cells (HepG2 cells [2]; 1 × 10^–5 M): produced positive signals | time for the impedance signal to reach a plateau (HepG2 cells [2]; HepG2 cells, lodoxamide 1 × 10^–8 M): ≤ 5 min | EC50 ([3]; Mus musculus, Hepatocyte, hepatocytes from hGPR35a-HA-expressing mice, co-addition with T0901317 8 × 10^–6 M, 48 h, read-out: EC50 for prevention of T0901317-induced lipid accumulation): 17 nM | reversal of pre-established lipid accumulation ([3]; T0901317 8 × 10^–6 M for 2 days, then lodoxamide added with continued T0901317): sufficient to reduce lipid levels to those observed in the absence of T0901317; also recorded: reduced to basal | potency in the reversal setting relative to co-addition ([3]; T0901317 pretreatment model): less potent than when added alongside T0901317 | cellular impedance response in hepatocytes from hGPR35a-HA-expressing mice [4]: time-dependent increase in cellular impedance | effect of treatment in high-fat diet-induced wild-type mice [5]: beneficial effects
